Test results published in US20260101895A1, “[…] AND COMPOSITION” (Innospec Limited, priority 2022, published 2026).

What was measured:
[1] = initial solubility; 2 g complex in 100 ml deionised water, room temperature, 20 minutes, filtered 0.45 μm
Source text: By the term “copper bioavailability” we mean the amount of copper that is released upon contact with water, i.e. so as to provide free copper ions for consumption by fungi. Copper bioavailability values may be measured using any suitable method, including the method as set out in the Examples. The copper bioavailability may be determined by measuring the content of copper in a sample (for example using a colorimetric test that compares to copper nitrate solutions of known concentrations) and converting the copper content to an amount of bioavailable copper (in ppm) using the formula: […]
The copper content is converted to bioavailable copper using the formula:
A solution of each copper amino carboxylic acid complex was prepared by dissolving 2 g of the copper complex in 100 ml deionised water and stirring at room temperature for 20 minutes. A sample of this solution was then withdrawn and filtered through a 0.45 μm syringe.
The filtered copper liquid was diluted with 1% nitric acid to yield a solution containing an approximate maximum of 1 mg/L Cu2+. The total copper content was then determined using a Perkin Elmer NexION 350D and converted to bioavailable copper using the formula above.

[2] = Repeated solubility: copper bioavailability over repeated wettings (colorimetric); conditions: for Bioavailable copper Step 1 / Bioavailable copper Step 2 / Bioavailable copper Step 3 / Bioavailable copper Step 4 / Bioavailable copper Step 5: repeated solubility; for Bioavailable copper Step 1: 1 g complex in 50 ml deionised water, centrifuged, filtered, colorimetric 635 nm; for Bioavailable copper Step 2 / Bioavailable copper Step 3 / Bioavailable copper Step 4 / Bioavailable copper Step 5: undissolved material in 50 ml fresh deionised water
Method: The colorimetric absorbance at 635 nm using a Hach Lange DR3900 Spectrophotometer of copper nitrate solutions of known concentrations gives a linear relationship where:
Absorbance is relative to a standard solution of 9.9 ml deionised water, 0.1 ml 68 to 70% nitric acid
The copper content is converted to bioavailable copper using the formula: […]
To determine the copper content of each of the copper amino carboxylic acid complexes, 9.9 ml of filtered copper containing solution and 0.1 mL of 68 to 70% nitric acid was added to a spectrometer vial to completely react all of the copper complex to copper nitrate.
The absorbance at 635 nm (pre-zeroed with solution of 9.9 mL deionised water and 0.1 mL nitric acid) was recorded.
1 g of each copper amino carboxylic acid complex was added to 50 ml deionised water in a 50 ml centrifuge tube and stirred. The resulting mixture was centrifuged at 4000 rpm for 30 minutes, a sample of this was withdrawn and filtered through a 0.45 μm syringe. The copper content was determined using the above colorimetric method.
The remaining liquid in the centrifuge tube was poured away leaving only some undissolved material. 50 ml of fresh deionised water was added to the centrifuge tube containing undissolved material. The stirring and centrifugation process was repeated until no undissolved material remained.
These measurements indicate the bioavailability of the copper over repeated wettings in use.

**Q.** For Copper 2-aminooctanoate, which “Bioavailable Cu by ICP-MS” value [1] is on record?
**A.** 150 ppm

**Q.** For Copper sarcosinate, which “Bioavailable Cu by ICP-MS” value [1] is on record?
**A.** 278000 ppm

**Q.** For Copper lysinate, which “Bioavailable Cu by ICP-MS” value [1] is on record?
**A.** 106950 ppm

**Q.** And the “Bioavailable copper Step 1” value [2]?
**A.** 79000 ppm

**Q.** What about the “Bioavailable copper Step 2” value [2] of the same molecule?
**A.** 24000 ppm

**Q.** And the “Bioavailable copper Step 3” value [2]?
**A.** 8375 ppm

**Q.** And the “Bioavailable copper Step 4” value [2]?
**A.** 4000 ppm

**Q.** And the “Bioavailable copper Step 5” value [2]?
**A.** 0 ppm

**Q.** With O=C([O-])CNCC(=O)[O-].[Cu+2] [Copper iminodiacetate] as the molecule, how does the “Bioavailable Cu by ICP-MS” value [1] read?
**A.** 33000 ppm

**Q.** What about the “Bioavailable copper Step 1” value [2] of the same molecule?
**A.** 27750 ppm

**Q.** And the “Bioavailable copper Step 2” value [2]?
**A.** 27750 ppm

**Q.** And the “Bioavailable copper Step 3” value [2]?
**A.** 27750 ppm

**Q.** And the “Bioavailable copper Step 4” value [2]?
**A.** 27750 ppm

**Q.** What about the “Bioavailable copper Step 5” value [2] of the same molecule?
**A.** 27125 ppm

**Q.** What about the “Bioavailability over repeated wettings/steps (in words)” value ([2]; summary of Table 2) of the same molecule?
**A.** good bioavailability for 3 or more wettings/steps

**Q.** Which “Bioavailable Cu by ICP-MS” value [1] does the source give for Copper phenylalaninate here?
**A.** 5250 ppm

**Q.** With Copper 12-aminododecanoate as the molecule, how does the “Bioavailable Cu by ICP-MS” value [1] read?
**A.** 9200 ppm

**Q.** With Copper L-asparaginate as the molecule, how does the “Bioavailable Cu by ICP-MS” value [1] read?
**A.** 7125 ppm

**Q.** For Copper isoleucinate, which “Bioavailable Cu by ICP-MS” value [1] is on record?
**A.** 13050 ppm
